# Results as given in paper PMC9738062, “Selectively Halogenated Flavonolignans—Preparation and Antibacterial Activity” (International Journal of Molecular Sciences, 2022).
# Experiments:
# [1] = Ferric reducing antioxidant power (FRAP); conditions: Fe2+ equivalents
# Experimental: (§1) To further elucidate how halogenation affects other properties of the flavonoids studied, their 2,2′-azino-bis-(3-ethylbenzothiazoline-6-sulfonic acid) cation (ABTS) and 1,1-diphenyl-2-picrylhydrazyl (DPPH) radical scavenging, the Folin–Ciocalteu reagent (FCR) reducing, the ferric-reducing antioxidant power (FRAP), and the anti-lipoperoxidation activities were evaluated by in vitro methods (Supplementary Information Tables S1 and S2).
# (§2) The antiradical activity was evaluated by the ability to scavenge ABTS and DPPH radicals. Reducing capacity was assessed by the ability to reduce the Folin–Ciocalteu reagent (FCR) and ferric ions (FRAP). The ability to inhibit lipid peroxidation of pooled male rat microsomal liver membranes induced by tert-butyl hydroperoxide was also evaluated and the results were expressed as IC50 values.
# [2] = Folin-Ciocalteu reagent reduction; conditions: gallic acid equivalents
# Experimental: as §1, §2
# [3] = DPPH radical scavenging; conditions: 1,1-diphenyl-2-picrylhydrazyl radical scavenging
# Experimental: as §1, §2
# [4] = ABTS cation radical scavenging; conditions: vitamin C equivalent antioxidant capacity
# Experimental: as §1, §2
# [5] = system: Vibrio campbellii BAA 1119 (AI-2); assay: microbe, parasite or virus in culture; type: cell-based; conditions: for EC50: Vibrio campbellii, BAA1119, 16 h, read-out: EC50 (concentration that halved the communication); for SI (selectivity index): ratio IC50 (viability) / EC50 (communication), BAA 1119
# Text: (§3) Commercially available strains of Vibrio campbellii were used to evaluate the ability of flavonoids and their derivatives to inhibit bacterial quorum sensing. V. campbellii uses two types of autoinducing molecules for its communication—N-acyl-homoserine lactones (Autoinducer I, AI-1, strain BAA 1118) and furanosyl borate diester (Autoinducer II, AI-2, strain BAA 1119). AI-1-based communication is mainly used by Gram-negative bacteria, while AI-2-based communication is found in both Gram-negative and Gram-positive bacteria. The mutant strains of V. campbellii BA1118 and BA1119 respond only to AI-1 or AI-2, respectively, and the response to the respective AI concentration is measured as luminescence. The higher the AI concentration, the higher the luminescence signal. The ability to inhibit the communication was expressed as the selectivity index (SI), calculated as the ratio between the concentration that halved the viability (IC50) and the concentration that halved the communication (EC50) of the respective V. campbellii strains. […] The antimicrobial activity of quorum-sensing inhibitors is undesirable because it creates a selection pressure and can lead to the development of resistance.
# (§4) The inhibition of bacterial extracellular communication was measured using Vibrio campbellii strains BAA-1118 and BAA-1119. The experiment was performed according to the methods of Szemerédi et al.. Briefly, 5 × 10^5 CFU/mL (colony-forming units per milliliter) were seeded in an Autoinducer Bioassay medium (NaCl 17.5 g/L, MgSO4 12.3 g/L, Casamino acids 2 g/L, 10 mL of 1 M potassium phosphate pH 7.0, 10 mL of 0.1 M L-arginine, and 10 mL of glycerol in 970 mL of deionized water) in a 96-well plate. Immediately, the tested compounds were added at the final concentration of 0.2–200 µM and luminescence was recorded for 16 h by a SpectraMax i3x microplate reader set at 30 °C, an integration time of 10,000 ms, and shaking for 60 s before measurement. […] The selectivity index was calculated as the […]. The EC50 and IC50 were calculated using GraphPad Prism software version 5.00 for Windows with a nonlinear regression curve fit.
# [6] = system: Vibrio campbellii BAA 1118 (AI-1); assay: microbe, parasite or virus in culture; type: cell-based; conditions: for EC50: Vibrio campbellii, BAA1118, 16 h, read-out: EC50 (concentration that halved the communication); for SI (selectivity index): ratio IC50 (viability) / EC50 (communication), BAA 1118
# Text: as §3, §4
# [7] = system: multidrug-resistant P. aeruginosa; assay: Sensitization of antibiotic-resistant bacteria (compound plus breakpoint antibiotic concentration); type: cell-based, Pseudomonas aeruginosa; conditions: flavonoid 40 µM, 24 h; for Effect on viability in combination with colistin: colistin 2 mg/L; for Effect on viability in combination with imipenem: imipenem 4 mg/L; on Effect on viability in combination with imipenem: key: -: no effect (100% viability) was observed up to the highest flavonolignan concentration tested (>40 µM); reversion of resistance: the compound reversed the resistant phenotype to a sensitive one
# Experimental: (§5) Clinically relevant antibiotics were selected for sensitization testing according to the European Committee on Antimicrobial Susceptibility Testing (EUCAST). Neither colistin and imipenem at breakpoint concentrations (according to EUCAST, […] and […]) affected the growth of the multidrug-resistant clinical strain of P. aeruginosa. Similarly, neither chloramphenicol and gentamicin at breakpoint concentrations ([…], respectively) affected the multidrug-resistant clinical strain of S. aureus. Flavonoids and their derivatives (1–40 µM) were used in combination therapy, along with the breakpoint concentration of antibiotics. After co-incubation, the minimum inhibitory concentration of flavonoids inhibiting the visible growth of bacteria was determined (Table 2).
# (§6) Clinical isolates of P. aeruginosa and S. aureus were obtained from the General University Hospital in Prague (Prague, Czech Republic). P. aeruginosa was resistant to ciprofloxacin, oxacillin, ticarcillin, colistin, gentamicin, and imipenem. S. aureus was resistant to ciprofloxacin, gentamicin, erythromycin, chloramphenicol, clindamycin, oxacillin, cefotaxime, and vancomycin. Bacteria were cultivated in Mueller–Hinton broth (MH broth, Merck). The susceptibility of the bacteria was evaluated by the minimum inhibitory concentrations (MIC). The MIC of derivatives in the presence of the antibiotic cut-off concentration was determined according to ISO 20776-1: 2020. The antibiotic cut-off concentration was chosen according to the European Committee on Antimicrobial Susceptibility Testing (EUCAST, Clinical breakpoints—bacteria (ver. 11.0), 1 January 2021). The 40 µM concentration of the derivatives was chosen as the highest concentration for the tests. Cell viability was determined by measuring absorbance (A590 nm) after 24 h incubation at 37 °C, 150 rpm.
# [8] = system: multidrug-resistant S. aureus; assay: as above; type: cell-based, Staphylococcus aureus; conditions: flavonoid 40 µM, 24 h; for Effect on viability in combination with chloramphenicol: chloramphenicol 8 mg/L
# Experimental: as §5, §6
# [9] = system: lipopolysaccharide-stimulated macrophages (RAW 264.7); assay: Inhibition of nitric oxide production (Griess reagent); type: cell-based, murine; conditions: Mus musculus, RAW264.7; LPS 100 ng/mL, 24 h; highest tested concentration 100 µM; read-out: NO Production IC50
# Experimental: The anti-inflammatory activity of the tested flavonolignans was determined as the ability to reduce nitric oxide production by murine macrophages (RAW 264.7) stimulated by bacterial lipopolysaccharides, as previously described. […] For the experiment, 1 × 10^6 cells/mL was seeded into the 96-well plate (100 µL/well). […] After 24 h, the medium was mixed with Griess reagent (0.04 g/mL), prepared freshly in deionized water at the ratio of 1:1. The absorbance was measured after 15 min at 540 nm by the SpectraMax i3x microplate reader. Cell viability was determined by resazurin assay.
# [10] = system: human dermal fibroblasts (HDF); assay: Cytotoxicity (resazurin assay, 72 h); type: cell-based; conditions: Fibroblast
# Experimental: (§7) The cytotoxicity of flavonoids and their halogenated derivatives was determined as their ability to decrease the viability of human dermal fibroblasts (HDF) and doxorubicin-resistant human ovarian carcinomas (HOC/DOX). Both cell lines were cultivated in Dulbecco’s Modified Eagle’s Medium supplemented with fetal bovine serum (FBS, 10% v/v) and 1 × antibiotic antimycotic solution and incubated at 37 °C in the atmosphere of 5% CO2. The experiment was performed according to a previously published method. Briefly, 1 × 10^5 cells/mL were seeded into a 96-well plate (100 µL/well). After 24 h, flavonoids and their derivatives were administered at the concentration range of 31.25–500 µM. After 72 h, the viability was determined by resazurin assay (0.03 mg/mL of resazurin in PBS), where the fluorescence was measured after 2 h of incubation by the SpectraMax i3x microplate reader at a wavelength of 560/590 nm (excitation/emission). The concentration inhibiting half of the population (IC50) was determined using nonlinear regression in GraphPad Prism software. The selectivity index was calculated as the ratio between the IC50 for HDF (control, non-cancerous cells) and the IC50 for HOC/DOX (cancer cells).
# [11] = system: doxorubicin-resistant human ovarian carcinoma (HOC/DOX); assay: Cytotoxicity (resazurin assay, 72 h); type: cell-based; conditions: for IC50: Homo sapiens, 72 h, resazurin assay; for SI (selectivity index): ratio IC50 for HDF / IC50 for HOC/DOX
# Experimental: as §7
# [12] = system: Vibrio campbellii BAA 1118 (AI-1); assay: Viability of the quorum-sensing reporter culture (resazurin assay), AI-1 strain; type: cell-based; conditions: BAA1118, V. campbellii BAA 1118, resazurin assay, read-out: IC50 (concentration that halved the viability)
# Text: as §3, §4
# [13] = system: Vibrio campbellii BAA 1119 (AI-2); assay: Viability of the quorum-sensing reporter culture (resazurin assay), AI-2 strain; type: cell-based; conditions: BAA1119, V. campbellii BAA 1119, resazurin assay, read-out: IC50 (concentration that halved the viability)
# Text: as §3, §4
compound,measurement,setting,value
"[Fe+2] [Fe2+, reference compound]",FRAP [Fe2+eq],[1],1.01 Fe2+eq
"O=C(O)c1cc(O)c(O)c(O)c1 [gallic acid, reference compound]",FCR [GAE],[2],1.00 GAE
"COc1cc([C@@H]2Oc3cc([C@H]4Oc5c(I)c(O)cc(O)c5C(=O)[C@@H]4O)ccc3O[C@H]2CO)ccc1O [compound 24, 8-iodosilybin B]",IC50,[3],97.1 µM
same,FRAP [Fe2+eq],[1],0.079 ± 0.002 Fe2+eq
same,FCR [GAE],[2],1.01 ± 0.02 GAE
same,ABTS [CEAC],[4],0.47 ± 0.04 CEAC
"COc1cc([C@@H]2Oc3cc([C@H]4Oc5c(Br)c(O)cc(O)c5C(=O)[C@@H]4O)ccc3O[C@H]2CO)ccc1O [compound 20, 8-bromosilybin B]",EC50,[5],4.7 ± 0.2 µM
same,SI (selectivity index),[5],≥42.9 ± 2.1
same,EC50,[6],44.2 ± 0.7 µM
same,SI (selectivity index),[6],2.9 ± 0.1
same,Effect on viability in combination with colistin,[7],-
same,Effect on viability in combination with imipenem,[7],-
same,IC50,[3],> 500 µM
same,FRAP [Fe2+eq],[1],0.056 ± 0.002 Fe2+eq
same,Effect on viability in combination with chloramphenicol,[8],-
same,FCR [GAE],[2],1.10 ± 0.02 GAE
same,ABTS [CEAC],[4],0.47 ± 0.01 CEAC
same,IC50,[9],38 ± 2.2 µM
same,IC50,[10],97.9 ± 4.4 µM
same,IC50,[11],227 µM
same,SI (selectivity index),[11],0.43
same,IC50,[12],127 ± 4 µM
"COc1cc([C@@H]2Oc3cc([C@H]4Oc5c(I)c(O)c(I)c(O)c5C(=O)[C@@H]4O)ccc3O[C@H]2CO)ccc1O [compound 26, 6,8-diiodosilybin B]",IC50,[3],249 µM
same,FRAP [Fe2+eq],[1],0.048 ± 0.001 Fe2+eq
same,FCR [GAE],[2],0.84 ± 0.04 GAE
same,ABTS [CEAC],[4],0.48 ± 0.01 CEAC
"COc1cc([C@@H]2Oc3cc([C@H]4Oc5cc(O)c(Cl)c(O)c5C(=O)[C@@H]4O)ccc3O[C@H]2CO)ccc1O [compound 28, 6-Chlorosilybin B]",EC50,[5],3.2 ± 0.2 µM
same,SI (selectivity index),[5],≥62.6 ± 3.6
same,EC50,[6],114 ± 5 µM
same,SI (selectivity index),[6],1.1 ± 0.1
same,Effect on viability in combination with colistin,[7],-
same,Effect on viability in combination with imipenem,[7],-
same,IC50,[3],> 500 µM
same,IC50,[13],> 200 µM
same,FRAP [Fe2+eq],[1],0.050 ± 0.002 Fe2+eq
same,Effect on viability in combination with chloramphenicol,[8],-
same,FCR [GAE],[2],1.25 ± 0.01 GAE
same,ABTS [CEAC],[4],0.71 ± 0.02 CEAC
same,IC50,[9],52.4 ± 4.5 µM
same,IC50,[10],147 µM
same,IC50,[11],272 µM
same,SI (selectivity index),[11],0.54
same,IC50,[12],130 ± 5.9 µM
"COc1ccc2c(c1)c(CC(=O)O)c(C)n2C(=O)c1ccc(Cl)cc1 [Indomethacin, reference compound]",IC50,[9],51.3 ± 0.6 µM
same,IC50,[10],222 µM
same,IC50,[11],17.1 ± 0.6 µM
same,SI (selectivity index),[11],12.94
"O=C1O[C@H]([C@@H](O)CO)C(O)=C1O [vitamin C, reference compound]",ABTS [CEAC],[4],1.01 CEAC
"COc1cc([C@H]2Oc3cc([C@H]4Oc5c(I)c(O)c(I)c(O)c5C(=O)[C@@H]4O)ccc3O[C@@H]2CO)ccc1O [compound 25, 6,8-diiodosilybin A]",IC50,[3],> 500 µM
same,FRAP [Fe2+eq],[1],0.053 ± 0.003 Fe2+eq
same,FCR [GAE],[2],0.95 ± 0.01 GAE
same,ABTS [CEAC],[4],0.41 ± 0.01 CEAC
"O=c1[nH]cc(F)c(=O)[nH]1 [5-Fluorouracil, reference compound]",EC50,[5],0.00044 µM
same,SI (selectivity index),[5],7.8 ± 0.5
same,EC50,[6],0.00039 µM
same,SI (selectivity index),[6],1.73 ± 0.05
same,IC50,[13],0.00341 µM
same,IC50,[12],0.00068 µM
"CC1(C)[C@H](C(=O)O)N2C(=O)C[C@H]2S1(=O)=O [Sulbactam, reference compound]",Effect on viability in combination with colistin,[7],-
same,Effect on viability in combination with imipenem,[7],-
same,Effect on viability in combination with chloramphenicol,[8],reversion of resistance
same,Effect on viability in combination with gentamicin,[8]; gentamicin 1 mg/L,-
